For data set [1], the system named is Mycobacterium tuberculosis. Put plainly: Antitubercular activity against Mycobacterium tuberculosis H37Rv assessed as inhibition of bacterial growth at 25 ug/ml by alamar blue assay. The class given is functional, organism-based. Particulars: dose 25.0 µg/ml. (The colour change of resazurin is a common sign of viable cells or microbes.)
Data set [2] deals with Mycobacterium tuberculosis. Put plainly: Antitubercular activity against Mycobacterium tuberculosis expressing luxCDABE operon assessed as inhibition of bacterial growth under hypoxic conditions by low oxygen recovery assay. The class given is functional.
The test system of data set [3] is Mycobacterium tuberculosis. Put plainly: Antitubercular activity against Mycobacterium tuberculosis H37Rv assessed as inhibition of bacterial growth by alamar blue assay. It counts as functional.
A short description of data set [4]: Cytotoxicity against African green monkey Vero cells assessed as inhibition of cell growth incubated for 3 days by resazurin based fluorescence assay. It counts as toxicity. Particulars: African green monkey (Chlorocebus sabaeus).
Data set [5] concerns P388. Put plainly: Cytotoxicity against mouse P388 cells. It counts as functional, cell-based.
Data set [6] deals with Mycobacterium avium. Put plainly: Antitubercular activity against Mycobacterium avium ATCC 15769 assessed as inhibition of bacterial growth incubated for 24 hrs by resazurin based fluorescence assay. It counts as functional, organism-based.
Data set [7] concerns Mycobacteroides abscessus. Put plainly: Antitubercular activity against Mycobacterium abscessus ATCC 19977 assessed as inhibition of bacterial growth incubated for 4 hrs by resazurin based fluorescence assay. The class given is functional, organism-based.
Data set [8] deals with A549. Kind of data set: Cytotoxicity against human A549 cells. It counts as functional, cell-based.
Data set [9] relates to HeLa. Put plainly: Cytotoxicity against human HeLa cells. The class given is functional, cell-based.
Data set [10] relates to MCF7. Kind of data set: Cytotoxicity against human MCF7 cells. It counts as functional, cell-based.
Data set [11] deals with HCT-8. Kind of data set: Cytotoxicity against human HCT-8 cells. It counts as functional, cell-based.

In brackets after ≈: the same amount, converted by molar mass. Activity calls are given as the source filed them. No cut-off for these calls is given here.

Take `COc1ccc2c(c1)C[C@H]1[C@]3(C)CC[C@H]4[C@@]5(C)CCC[C@]4(CO[C@H]5O)[C@H]3CC[C@]1(C)O2`: in [1], the result was inactive.
Take `CO[C@H]1/C=C/O[C@@]2(C)Oc3c(C)c(O)c4c(O)c(c(/C=N/N5CCN(C)CC5)c(O)c4c3C2=O)NC(=O)/C(C)=C\C=C\[C@H](C)[C@H](O)[C@@H](C)[C@@H](O)[C@@H](C)[C@H](OC(C)=O)[C@@H]1C` [RIFAMPIN]: the minimum inhibitory concentration (MIC) (commonly the lowest concentration found to suppress growth) in data set [2] worked out at 0.09 µM (≈ 0.0741 µg/mL); in data set [3], 0.04 µM (≈ 0.0329 µg/mL).
On to `NNC(=O)c1ccncc1` [ISONIAZID], for which the results for the minimal inhibitory concentration (MIC) in data set [2] and in [3] were more than 128 µM and 0.2 µM (≈ 0.0274 µg/mL), respectively.
Turning to `O=[N+]([O-])c1cn2c(n1)OC[C@@H](OCc1ccc(OC(F)(F)F)cc1)C2` [PRETOMANID], the minimal inhibitory concentration (MIC) in [2] amounted to 2 µM (≈ 0.719 µg/mL); in data set [3], 0.2 µM (≈ 0.0719 µg/mL).
Regarding `C[C@]12CCC[C@](C)(C=O)[C@@H]1CC[C@]1(C)[C@@H]2CC[C@]2(C)Oc3ccc(O)cc3C[C@@H]12`, the outcome in [1] was inactive.
On to `COc1ccc2c(c1)C[C@H]1[C@]3(C)CC[C@H]4[C@@]5(C)CCC[C@]4(CO[C@@H]5O)[C@H]3CC[C@]1(C)O2`, for which, in data set [1], the result was inactive.
For the compound `CC(=O)NC[C@H]1CN(c2ccc(N3CCOCC3)c(F)c2)C(=O)O1` [LINEZOLID], the MIC stood at 1.7 µM (≈ 0.573 µg/mL) in [2] and 1 µM (≈ 0.337 µg/mL) in [3].
Turning to `C#CC(O)/C=C/CCCCCCCCC/C=C\CCCCCCCCC/C=C/C(O)C#C` (configuration not stated), in data set [4], the IC50 – broadly, the concentration at which inhibition is half-maximal – at 3 days turned out to be 400 nM. Moreover, the MIC came out at 1 µM (≈ 0.441 µg/mL) in data set [2] and 1.4 µM (≈ 0.617 µg/mL) in data set [3]. For the same compound, the IC50 in [5], in data set [8], in data set [9], in data set [10] and in [11] was 200 nM in each case. For the same compound, the result in [6] and in [7] was inactive.
On to `COc1ccc2c(c1)C[C@H]1[C@]3(C)CC[C@@H]4[C@]5(CCC[C@@]4(C)C(=O)OC5)[C@H]3CC[C@]1(C)O2`, for which the result in [1] was inactive.
On the same count and under the same terms, with `C[C@]12CCC[C@](C)(C(=O)O)[C@@H]1CC[C@]1(C)[C@@H]2CC[C@]2(C)Oc3ccc(O)cc3C[C@@H]12` the entry was “inactive”.
In the case of `COc1nc2ccc(Br)cc2cc1[C@@H](c1ccccc1)[C@@](O)(CCN(C)C)c1cccc2ccccc12` [BEDAQUILINE], the minimal inhibitory concentration (MIC) in [2] stood at 0.1 µM (≈ 0.0556 µg/mL); in [3], 0.03 µM (≈ 0.0167 µg/mL).
Consider `CCO[C@@H]1OC[C@]23CCC[C@]1(C)[C@@H]2CC[C@]1(C)[C@@H]3CC[C@]2(C)Oc3ccc(OC)cc3C[C@@H]12`, for which the result in data set [1] was inactive.
The same measure, in the same setting: then `COc1ccc2c(c1)C[C@H]1[C@]3(C)CC[C@@H]4[C@](C)(CCC[C@]4(C)C(=O)O)[C@H]3CC[C@]1(C)O2`, with “inactive”.
